# Assay results published in ChEMBL document CHEMBL4680208, “Sulfone derivatives enter the cytoplasm of Candida albicans sessile cells” (Eur J Med Chem, 2020).
# Activity calls are given as the source filed them. No cut-off for these calls is given here.
# Key:
# Candida albicans [1] = test: Antifungal activity against Candida albicans 90028 assessed as fungal growth inhibition at 8 ug/ml measured after 48 hrs by microdilution method relative to control; assay type: functional; details: read-out: GI
# Candida albicans [2] = test: Antifungal activity against Candida albicans 90028 assessed as fungal growth inhibition at 2 ug/ml measured after 48 hrs by microdilution method relative to control; assay type: functional; details: read-out: GI
# [3] = Cytotoxicity against human MRC5 cells by CellTiter 96 Aqueous One Solution Reagent based assay; assay type: cell-based
# Candida albicans [4] = test: Antifungal activity against Candida albicans 90028 assessed as fungal growth inhibition at 16 ug/ml measured after 48 hrs by microdilution method relative to control; assay type: functional; details: read-out: GI
# Candida albicans [5] = test: Antibiofilm activity against Candida albicans 90028 assessed as increasing in cell killing by XTT assay; assay type: functional
# Candida albicans [6] = test: Antifungal activity against Candida albicans 90028 assessed as fungal growth inhibition at 0.0625 ug/ml measured after 48 hrs by microdilution method relative to control; assay type: functional; details: read-out: GI
# Candida albicans [7] = test: Antifungal activity against Candida albicans 90028 infected in Galleria mellonella larvae at 16 ug/ml by H and E staining based histological analysis; assay type: functional, organism-based; details: dose 16.0 µg/ml
# [8] = Toxicity in Galleria mellonella larvae assessed as survival at 16 ug/ml relative to control; details: at 16 µg/mL
# Candida albicans [9] = test: Antifungal activity against Candida albicans 90028 assessed as fungal growth inhibition at 0.0313 ug/ml measured after 48 hrs by microdilution method relative to control; assay type: functional; details: read-out: GI
# Candida albicans [10] = test: Fungicidal activity against Candida albicans 90028 preincubated for 48 hrs followed by plating on SD agar and measured after 48 hrs; assay type: functional; details: time 96 hrs
# Candida albicans [11] = test: Antifungal activity against Candida albicans 90028 assessed as fungal growth inhibition measured after 48 hrs by microdilution method; assay type: functional
# Candida albicans [12] = test: Antifungal activity against Candida albicans 90028 assessed as fungal growth inhibition at 0.0313 ug/ml measured after 18 hrs by microdilution method relative to control; assay type: functional; details: read-out: GI
# Candida albicans [13] = test: Antifungal activity against Candida albicans 90028 assessed as fungal growth inhibition at 0.125 ug/ml measured after 48 hrs by microdilution method relative to control; assay type: functional; details: read-out: GI
# Candida albicans [14] = test: Antifungal activity against Candida albicans 90028 assessed as fungal growth inhibition at 0.125 ug/ml measured after 18 hrs by microdilution method relative to control; assay type: functional; details: read-out: GI
# Vero = test: Cytotoxicity against African green monkey Vero cells at 0.25 to 16 ug/ml by XTT assay relative to control; assay type: cell-based; details: chlorocebus sabaeus, at 0.25 to 16 µg/mL, dose 0.25-16 µg/ml
# Candida albicans [15] = test: Antifungal activity against Candida albicans 90028 assessed as fungal growth inhibition at 1 ug/ml measured after 18 hrs by microdilution method relative to control; assay type: functional; details: read-out: GI
# Candida albicans [16] = test: Antifungal activity against Candida albicans 90028 assessed as fungal growth inhibition at 4 ug/ml measured after 48 hrs by microdilution method relative to control; assay type: functional; details: read-out: GI
# Candida albicans [17] = test: Antifungal activity against Candida albicans 90028 assessed as fungal growth inhibition at 0.0625 ug/ml measured after 18 hrs by microdilution method relative to control; assay type: functional; details: read-out: GI
# Candida albicans [18] = test: Antifungal activity against Candida albicans 90028 assessed as fungal growth inhibition at 16 ug/ml measured after 18 hrs by microdilution method relative to control; assay type: functional; details: read-out: GI
# Candida albicans [19] = test: Antifungal activity against Candida albicans 90028 assessed as fungal growth inhibition at 0.5 ug/ml measured after 48 hrs by microdilution method relative to control; assay type: functional; details: read-out: GI
# Candida albicans [20] = test: Antifungal activity against Candida albicans 90028 assessed as fungal growth inhibition at 0.25 ug/ml measured after 18 hrs by microdilution method relative to control; assay type: functional; details: read-out: GI
# Candida albicans [21] = test: Antifungal activity against Candida albicans 90028 assessed as fungal growth inhibition at 2 ug/ml measured after 18 hrs by microdilution method relative to control; assay type: functional; details: read-out: GI
# Candida albicans [22] = test: Antifungal activity against Candida albicans 90028 assessed as fungal growth inhibition at 0.25 ug/ml measured after 48 hrs by microdilution method relative to control; assay type: functional; details: read-out: GI
# Candida albicans [23] = test: Antifungal activity against Candida albicans 90028 assessed as fungal growth inhibition at 0.5 ug/ml measured after 18 hrs by microdilution method relative to control; assay type: functional; details: read-out: GI
# Candida albicans [24] = test: Anti-adhesive activity against Candida albicans assessed as reduction in […] adhesion to human TR146 cells at 8 ug/ml incubated for 2 hrs prior to cell infection and measured after 2 hrs by colony counting method relative to control; assay type: functional; parameters: scale not given: the % may be the effect or the level left; details: dose 8 µg/ml; time 4 hrs
# [25] = Cytotoxicity against African green monkey Vero cells by XTT assay; assay type: cell-based; details: chlorocebus sabaeus
# Candida albicans [26] = test: Antibiofilm activity against Candida albicans 90028 assessed as cell killing at 256 ug/ml by XTT assay relative to control; assay type: functional; details: dose 256 µg/ml
# Candida albicans [27] = test: Antifungal activity against Candida albicans 90028 assessed as fungal growth inhibition at 8 ug/ml measured after 18 hrs by microdilution method relative to control; assay type: functional; details: read-out: GI
# Candida albicans [28] = test: Antifungal activity against Candida albicans 90028 assessed as fungal growth inhibition at 1 ug/ml measured after 48 hrs by microdilution method relative to control; assay type: functional; details: read-out: GI
# Candida albicans [29] = test: Antifungal activity against Candida albicans 90028 assessed as fungal growth inhibition at 4 ug/ml measured after 18 hrs by microdilution method relative to control; assay type: functional; details: read-out: GI
# Candida albicans [30] = test: Induction of plasma membrane disruption in Candida albicans assessed as accidental type cell death at 8 ug/ml measured after 18 hrs by Annexin V-FITC/propidium iodide staining based flow cytometry (reference value: 1.74 +/- 1.37%); details: dose 8.0 µg/ml
# [31] = Induction of adhesive activity against Candida albicans assessed as increase in […] adhesion to human TR146 cells at 4 ug/ml incubated for 2 hrs prior to cell infection and measured after 2 hrs by colony counting method relative to control; assay type: cell-based; details: tr146, 4 h, dose 4 µg/ml
# Candida albicans [32] = test: Antifungal activity against Candida albicans 90028 infected in Galleria mellonella larvae assessed as increase in larvae survival at MFC measured 96 hrs post-infection relative to control; assay type: functional
# Candida albicans [33] = test: Induction of cell demise in Candida albicans infected in human MRC5 cells at 16 ug/ml measured after 18 hrs by AO/propidium iodide staining based confocal laser scanning microscopy; assay type: functional, organism-based; details: dose 16.0 µg/ml
# [34] = Drug uptake in Galleria mellonella larvae assessed as increase in fluorescence between cell wall and muscle layer measured after 2 hrs by fluorescence assay; assay type: ADME
# Candida albicans [35] = test: Induction of plasma membrane permeabilization in Candida albicans infected in human MRC5 cells at 16 ug/ml measured after 18 hrs by propidium iodide staining based confocal laser scanning microscopy; assay type: functional, organism-based; details: dose 16.0 µg/ml
# [36] = Drug uptake in Galleria mellonella larvae assessed as increase in fluorescence near the proventriculus measured after 2 hrs by fluorescence assay; assay type: ADME
# Candida albicans [37] = test: Induction of plasma membrane permeabilization in Candida albicans infected in human TR146 cells at 16 ug/ml measured after 18 hrs by propidium iodide staining based confocal laser scanning microscopy; assay type: functional, organism-based; details: dose 16.0 µg/ml
# Candida albicans [38] = test: Induction of cell demise in Candida albicans infected in human TR146 cells at 16 ug/ml measured after 18 hrs by AO/propidium iodide staining based confocal laser scanning microscopy; assay type: functional, organism-based; details: dose 16.0 µg/ml
SMILES,inhibition of growth at 8 µg/mL (Candida albicans [1]) [%],inhibition of growth at 2 µg/mL (Candida albicans [2]) [%],CC50 [3] [µg/mL],inhibition of growth at 16 µg/mL (Candida albicans [4]) [%],inhibition of growth at 0.0625 µg/mL (Candida albicans [6]) [%],Activity (Candida albicans [7]),survival [8] [%],inhibition of growth at 0.0313 µg/mL (Candida albicans [9]) [%],MFC (Candida albicans [10]) [µg/mL],inhibition of growth at 0.0313 µg/mL (Candida albicans [12]) [%],inhibition of growth at 0.125 µg/mL (Candida albicans [13]) [%],inhibition of growth at 0.125 µg/mL (Candida albicans [14]) [%],inhibition of growth at 1 µg/mL (Candida albicans [15]) [%],inhibition of growth at 4 µg/mL (Candida albicans [16]) [%],inhibition of growth at 0.0625 µg/mL (Candida albicans [17]) [%],inhibition of growth at 16 µg/mL (Candida albicans [18]) [%],inhibition of growth at 0.5 µg/mL (Candida albicans [19]) [%],inhibition of growth at 0.25 µg/mL (Candida albicans [20]) [%],inhibition of growth at 2 µg/mL (Candida albicans [21]) [%],inhibition of growth at 0.25 µg/mL (Candida albicans [22]) [%],also measured
NNc1ccc(S(=O)(=O)C(F)(F)I)cc1[N+](=O)[O-],100,72.8,≥ 16,100,15.5,inactive,100,22,8,88.2,22.9,73.7,100,74.9,100,100,70.1,100,100,69.5,CC50 (Candida albicans [5]): ≤ 64 µg/mL; MIC90 (Candida albicans [11]): 8 µg/mL; Activity (Vero): 12.54%; inhibition of growth at 0.5 µg/mL (Candida albicans [23]): 99.7%; Activity (Candida albicans [24]): 100%; CC50 [25]: ≥ 32 µg/mL; Activity (Candida albicans [26]): 40%; inhibition of growth at 8 µg/mL (Candida albicans [27]): 100%; inhibition of growth at 1 µg/mL (Candida albicans [28]): 72.9%; inhibition of growth at 4 µg/mL (Candida albicans [29]): 100%; Activity (Candida albicans [30]): 74.8%; fold change (FC) [31]: 13.78
O=[N+]([O-])c1cc(S(=O)(=O)C(Cl)(Cl)Br)ccc1N/N=C\c1ccc(C2=C3C=CC=[N+]3[B-](F)(F)n3cccc32)cc1,100,100,≥ 256,100,99.8,Active,93,99.7,≥ 16,99.7,99.7,99.7,100,100,99.8,100,100,100,100,100,Activity (Candida albicans [32]): 61.47%; Activity (Candida albicans [33]): Active; Drug uptake [34]: Active; Activity (Candida albicans [35]): Active; Drug uptake [36]: Active; Activity (Candida albicans [37]): Active; Activity (Candida albicans [38]): Active; inhibition of growth at 0.5 µg/mL (Candida albicans [23]): 100%; CC50 [25]: ≥ 8 µg/mL; inhibition of growth at 8 µg/mL (Candida albicans [27]): 100%; inhibition of growth at 1 µg/mL (Candida albicans [28]): 100%; inhibition of growth at 4 µg/mL (Candida albicans [29]): 100%
C[C@@H]1[C@H](O)[C@@H](C)/C=C/C=C/C=C/C=C/C=C/C=C/C=C/[C@H](O[C@@H]2O[C@H](C)[C@@H](O)[C@H](N)[C@@H]2O)C[C@@H]2O[C@](O)(C[C@@H](O)C[C@@H](O)[C@H](O)CC[C@@H](O)C[C@@H](O)CC(=O)O[C@H]1C)C[C@H](O)[C@H]2C(=O)O,,,,,,,,,,,,,,,,,,,,,Activity (Candida albicans [5]): Active
